Patent publication US20250134906A1 (Woolsey Pharmaceuticals, Inc., priority 2022, published 2025)
Counter-ions that a name gives are not always drawn.

What was measured:
[1] = Stability of aqueous fasudil in 0.05M citrate buffer with or without EDTA, 60° C. for 36 days; assay type: physicochemical
Protocol: Samples were stored at 60° C. for 36 days.

[2] = Solubility and stability of unbuffered aqueous fasudil solutions stored at 60° C. for 42 days; assay type: physicochemical; settings: 16-20 mg/ml
Protocol: Samples were stored at 60° C. for 42 days.

In the case of O=S(=O)(c1cccc2cnccc12)N1CCCNCC1 [Fasudil, hexahydro-1-(5-isoquinolinesulfonyl)-1H-1,4-diazepine monohydrochloride hemihydrate], the “changes in pH or fasudil concentration” value [1] is reported as “compatible with EDTA in citrate buffer” and the “changes in fasudil concentration or pH” value [2] is reported as “stable in the range of pH 4 to pH 6”.
